Assays:
[1] = system: Aβtotal produced and secreted into the medium of human neuroblastoma SKNBE2 cells; assay: Cellular αlisa assay in SKNBE2 cells, Aβtotal; assay type: cell-based; details: SKNBE2 cells expressing hAPP695, incubated for 18 hours; for IC50: Homo sapiens, SKNBE2, 18 h, read-out: Cellular αlisa assay in SKNBE2 cells Aβtotal pIC50 (converted)
Procedure: (§1) In two αlisa assays the levels of Aβtotal and Aβ42 produced and secreted into the medium of human neuroblastoma SKNBE2 cells are quantified. The assay is based on the human neuroblastoma SKNBE2 expressing the wild type Amyloid Precursor Protein (hAPP695). The compounds are diluted and added to these cells, incubated for 18 hours and then measurements of Aβ42 and Aβtotal are taken. Aβtotal and Aβ42 are measured by sandwich αlisa. αlisa is a sandwich assay using biotinylated antibody AbN/25 attached to streptavidin coated beads and antibody Ab4G8 or cAb42/26 conjugated acceptor beads for the detection of Aβtotal and Aβ42 respectively. In the presence of Aβtotal or Aβ42, the beads come into close proximity. The excitation of the Donor beads provokes the release of singlet oxygen molecules that triggers a cascade of energy transfer in the Acceptor beads, resulting in light emission. Light emission is measured after 1 hour incubation (excitation at […] and emission at 615 nm).
(§2) A best-fit curve is fitted by a minimum sum of squares method to the plot of % Controlmin versus compound concentration.
(§3) LC=Median of the low control values
(§4) =Low control: cells preincubated without compound, without biotinylated Ab in the αlisa
(§5) HC=Median of the High control values
(§6) =High Control: cells preincubated without compound % Effect=100−[(sample−LC)/(HC−LC)*100] % Control=(sample/HC)*100% % Controlmin=(sample−LC)/(HC−LC)*100

[2] = system: Aβ42 produced and secreted into the medium of human neuroblastoma SKNBE2 cells; assay: Cellular αlisa assay in SKNBE2 cells, Aβ42; assay type: cell-based; details: SKNBE2 cells expressing hAPP695, incubated for 18 hours; for IC50: Homo sapiens, SKNBE2, 18 h, read-out: Cellular αlisa assay in SKNBE2 cells Aβ42 pIC50 (converted)
Procedure: as §1, §2, §3, §4, §5, §6

[3] = target: T1, recombinant BACE1 protein (Homo sapiens, UniProt P56817); assay: Biochemical FRET based assay; details: recombinant BACE1 1 μg/ml, 10 μm substrate, 120 minutes, room temperature, pH 5.0; read-out: Biochemical FRET based assay pIC50 (converted)
T1 construct: recombinant BACE1 protein in a final concentration of 1 μg/ml
T1 sequence (P56817 46-501): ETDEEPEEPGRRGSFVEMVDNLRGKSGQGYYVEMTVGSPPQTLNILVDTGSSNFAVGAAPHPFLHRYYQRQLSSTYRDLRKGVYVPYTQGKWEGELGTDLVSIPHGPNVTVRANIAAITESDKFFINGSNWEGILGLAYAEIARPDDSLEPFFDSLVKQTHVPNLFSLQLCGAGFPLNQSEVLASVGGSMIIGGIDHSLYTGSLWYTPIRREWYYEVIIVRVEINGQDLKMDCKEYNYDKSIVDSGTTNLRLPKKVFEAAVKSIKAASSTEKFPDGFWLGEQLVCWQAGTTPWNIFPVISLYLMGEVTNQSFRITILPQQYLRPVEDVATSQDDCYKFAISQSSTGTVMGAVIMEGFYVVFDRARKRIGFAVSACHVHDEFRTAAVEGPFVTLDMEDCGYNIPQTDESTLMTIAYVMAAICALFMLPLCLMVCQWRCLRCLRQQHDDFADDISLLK
Description: This assay is a Fluorescence Resonance Energy Transfer Assay (FRET) based assay. The substrate for this assay is an APP derived 13 amino acids peptide that contains the ‘Swedish’ Lys-Met/Asn-Leu mutation of the amyloid precursor protein (APP) β-secretase cleavage site. This substrate also contains two fluorophores: (7-methoxycoumarin-4-yl) acetic acid (Mca) is a fluorescent donor with excitation wavelength at 320 nm and emission at 405 nm and 2,4-Dinitrophenyl (Dnp) is a proprietary quencher acceptor. […] Upon cleavage by BACE1, the fluorophore Mca is separated from the quenching group Dnp, restoring the full fluorescence yield of the donor. The increase in fluorescence is linearly related to the rate of proteolysis (Koike H et al. J. Biochem. 1999, 126, 235-242).
Briefly in a 384-well format recombinant BACE1 protein in a final concentration of 1 μg/ml is incubated for 120 minutes at room temperature with 10 μm substrate in incubation buffer (40 mM Citrate buffer pH 5.0, 0.04% PEG, 4% DMSO) in the absence or presence of compound. Next the amount of proteolysis is directly measured by fluorescence measurement at T=0 and T=120 (excitation at 320 nm and emission at 405 nm).
as §3
=Low control: Reaction without enzyme
as §5
=High Control: Reaction with enzyme % Effect=100−[(sample−LC)/(HC−LC)*100] % Control=(sample/HC)*100% % Controlmin=(sample−LC)/(HC−LC)*100

Row | SMILES | IC50 [1] | IC50 [2] | IC50 [3] | Cellular αlisa assay in SKNBE2 cells Aβtotal pIC50 [1] | Cellular αlisa assay in SKNBE2 cells Aβ42 pIC50 [2]
1 | CCOc1cnc(C(=O)Nc2ccc(F)c([C@]3(C)Cn4ccnc4C(N)=N3)c2)cn1 [Compound 23] | 0.0372 µM | 0.0251 µM | 0.457 µM | – | –
2 | C[C@@]1(c2cc(NC(=O)c3ncc(Cl)cc3Cl)ccc2F)Cn2cc(C(F)(F)F)nc2C(N)=N1 [Compound 25] | 0.017 µM | 0.0219 µM | 0.0468 µM | – | –
3 | COc1cnc(C(=O)Nc2ccc(F)c([C@]3(C)Cn4cc(C(F)(F)F)nc4C(N)=N3)c2)cn1 [Compound 26] | 0.0724 µM | 0.0851 µM | 0.234 µM | – | –
4 | NC1=NC(c2cc(NC(=O)c3ccc(F)cn3)ccc2F)(C(F)F)Cn2ccnc21 (stereo not drawn) [Compound 27] | – | – | 0.589 µM | 6.11 | 6.05
5 | NC1=NC(c2cc(NC(=O)c3ccc(F)cn3)ccc2F)(C(F)F)Cn2ccnc21 (stereo not drawn) [Compound 28] | – | – | 0.295 µM | 6.19 | 6.17
6 | NC1=NC(c2cc(NC(=O)c3ccc(F)cn3)ccc2F)(C(F)F)Cn2ccnc21 (stereo not drawn) [Compound 29] | – | – | > 30.2 µM | <5 | <5
7 | NC1=NC(c2cc(NC(=O)c3ncc(Cl)cc3F)ccc2F)(C(F)F)Cn2ccnc21 (stereo not drawn) [Compound 33] | 0.275 µM | 0.355 µM | 0.224 µM | – | –
8 | Cc1nc(C(=O)Nc2ccc(F)c([C@]3(C)Cn4cc(C(F)(F)F)nc4C(N)=N3)c2)co1 [Compound 38] | 0.0417 µM | 0.0427 µM | 0.1 µM | – | –
9 | Cc1nc(C(=O)Nc2ccc(F)c([C@]3(C)Cn4cc(C(F)(F)F)nc4C(N)=N3)c2)c(C(F)(F)F)o1 [Compound 39] | 0.158 µM | 0.158 µM | 0.269 µM | – | –
10 | C[C@@]1(c2cc(NC(=O)c3ccsn3)ccc2F)Cn2cc(C(F)(F)F)nc2C(N)=N1 [Compound 40] | 0.0912 µM | 0.0871 µM | 0.229 µM | – | –
11 | Cc1nc(C(=O)Nc2ccc(F)c([C@]3(C)Cn4cc(C(F)(F)F)nc4C(N)=N3)c2)c(C)o1 [Compound 41] | 0.117 µM | 0.12 µM | 0.178 µM | – | –
12 | C[C@@]1(c2cc(NC(=O)c3ccn(C(F)F)n3)ccc2F)Cn2ccnc2C(N)=N1 [Compound 42] | 0.02 µM | 0.0191 µM | 0.115 µM | – | –
13 | Cc1nc(C(=O)Nc2ccc(F)c([C@]3(C)Cn4ccnc4C(N)=N3)c2)co1 [Compound 43] | 0.0427 µM | 0.038 µM | 0.186 µM | – | –
14 | Cc1nc(C(=O)Nc2ccc(F)c([C@]3(C)Cn4ccnc4C(N)=N3)c2)c(C(F)(F)F)o1 [Compound 44] | 0.0933 µM | 0.0955 µM | 0.38 µM | – | –
15 | C[C@@]1(c2cc(NC(=O)c3ccsn3)ccc2F)Cn2ccnc2C(N)=N1 [Compound 45] | 0.0676 µM | 0.0661 µM | 0.427 µM | – | –
16 | Cc1nc(C(=O)Nc2ccc(F)c([C@]3(C)Cn4ccnc4C(N)=N3)c2)c(C)o1 [Compound 46] | 0.0832 µM | 0.0891 µM | 0.38 µM | – | –
17 | C[C@@]1(c2cc(NC(=O)c3ccc(C#N)cn3)ccc2F)Cn2cc(C(F)F)nc2C(N)=N1 [Compound 49] | 0.00933 µM | 0.00851 µM | 0.0977 µM | – | –

The next lines start with the values.

Row | IC50 [1] | IC50 [2] | IC50 [3] | Cellular αlisa assay in SKNBE2 cells Aβtotal pIC50 [1] | Cellular αlisa assay in SKNBE2 cells Aβ42 pIC50 [2] | SMILES
18 | 0.00813 µM | 0.00741 µM | 0.0589 µM | – | – | C[C@@]1(c2cc(NC(=O)c3ccc(Cl)cn3)ccc2F)Cn2cc(C(F)F)nc2C(N)=N1 [Compound 50]
19 | 0.038 µM | 0.0407 µM | 0.0977 µM | – | – | COc1cnc(C(=O)Nc2ccc(F)c([C@]3(C)Cn4cc(Cl)nc4C(N)=N3)c2)cn1 [Compound 52]
20 | 0.0355 µM | 0.0363 µM | 0.0617 µM | – | – | C[C@@]1(c2cc(NC(=O)c3ccc(F)cn3)ccc2F)Cn2cc(Cl)nc2C(N)=N1 [Compound 53]
21 | 0.0355 µM | 0.0324 µM | 0.0759 µM | – | – | C[C@@]1(c2cc(NC(=O)c3ccc(F)cn3)ccc2F)Cn2cc(Br)nc2C(N)=N1 [Compound 54]
22 | 0.0324 µM | 0.0316 µM | 0.112 µM | – | – | COc1cnc(C(=O)Nc2ccc(F)c([C@]3(C)Cn4cc(Br)nc4C(N)=N3)c2)cn1 [Compound 55]
23 | 0.0219 µM | 0.0209 µM | 0.0832 µM | – | – | C[C@@]1(c2cc(NC(=O)c3ccc(F)cn3)ccc2F)Cn2cc(C#N)nc2C(N)=N1 [Compound 56, (R)—N-{3-[8-amino-2-cyano-6-methyl-5,6-dihydroimidazo[1,2-a]pyrazin-6-yl]-4-fluorophenyl}-5-fluoropyridine-2-carboxamide]
24 | 0.0148 µM | 0.0135 µM | 0.0661 µM | – | – | COc1cnc(C(=O)Nc2ccc(F)c([C@]3(C)Cn4c(Cl)cnc4C(N)=N3)c2)cn1 [Compound 57]
25 | 0.02 µM | 0.02 µM | 0.0759 µM | – | – | C[C@@]1(c2cc(NC(=O)c3ccc(F)cn3)ccc2F)Cn2c(Cl)cnc2C(N)=N1 [Compound 58]
